Like-named read-outs stand apart in the source and are kept apart here.
Assays:
Type in all cases: cell-based
CCRF-CEM = assay: NCI 60 five-dose screen CCRF-CEM; details: Homo sapiens, five-dose
HS 578T = assay: NCI 60 five-dose screen HS 578T; details: Homo sapiens, five-dose
[1] = tested on: MV-4-11 acute myeloid leukemia cells; assay: CellTiter-Glo 2.0 cell viability, MV-4-11; details: Homo sapiens
Experimental: 2019 October; 94(4): 1813-1823.
Cell viability was assessed using the CellTiter-Glo 2.0 assay from Promega, which yields a signal proportional to the amount of ATP present in a cell population. Compounds were first dispensed into empty 96-well flat-bottom tissue culture-treated plates (Corning) using an Echo550. MV4-1 cells were diluted to a density of 0.1 million cells per ml, pipetted onto the compounds at a density of 1,000 cells per well for U937 and 3,000 cells per well for MV4-11, mixed, and incubated for 3 days at 37° C. with 5% C02. After incubating, 5 μl of cells from each well were added to 5 μl of CellTiter-Glo 2.0 reagent in a384-well white ProxiPlate (PerkinElmer), incubated for 20 minutes at ambient temperature, and luminescence was analyzed on an EnSpire plate reader. Graphing and regression analysis was performed in Graphpad Prism.

PC-3 = assay: NCI 60 five-dose screen PC-3; details: Homo sapiens, five-dose
NCI/ADR-RES = assay: NCI 60 five-dose screen NCI/ADR-RES; details: Homo sapiens, five-dose
NCI-H226 = assay: NCI 60 five-dose screen NCI-H226; details: Homo sapiens, five-dose
UACC-257 = assay: NCI 60 five-dose screen UACC-257; details: Homo sapiens, five-dose
SK-MEL-5 = assay: NCI 60 five-dose screen SK-MEL-5; details: Homo sapiens, five-dose
ACHN = assay: NCI 60 five-dose screen ACHN; details: Homo sapiens, five-dose
A498 = assay: NCI 60 five-dose screen A498; details: Homo sapiens, five-dose
OVCAR-5 = assay: NCI 60 five-dose screen OVCAR-5; details: Homo sapiens, five-dose
NCI-H460 = assay: NCI 60 five-dose screen NCI-H460; details: Homo sapiens, five-dose
RPMI-8226 = assay: NCI 60 five-dose screen RPMI-8226; details: Homo sapiens, five-dose
BT-549 = assay: NCI 60 five-dose screen BT-549; details: Homo sapiens, five-dose
MDA-MB-468 = assay: NCI 60 five-dose screen MDA-MB-468; details: Homo sapiens, five-dose
NCI-H23 = assay: NCI 60 five-dose screen NCI-H23; details: Homo sapiens, five-dose
DU-145 = assay: NCI 60 five-dose screen DU-145; details: Homo sapiens, five-dose
U251 = assay: NCI 60 five-dose screen U251; details: Homo sapiens, U-251, five-dose
MDA-MB-435 = assay: NCI 60 five-dose screen MDA-MB-435; details: Homo sapiens, five-dose
OVCAR-3 = assay: NCI 60 five-dose screen OVCAR-3; details: Homo sapiens, five-dose
SW-620 = assay: NCI 60 five-dose screen SW-620; details: Homo sapiens, five-dose
UACC-62 = assay: NCI 60 five-dose screen UACC-62; details: Homo sapiens, five-dose
NCI-H522 = assay: NCI 60 five-dose screen NCI-H522; details: Homo sapiens, five-dose
HOP-62 = assay: NCI 60 five-dose screen HOP-62; details: Homo sapiens, five-dose
SK-MEL-28 = assay: NCI 60 five-dose screen SK-MEL-28; details: Homo sapiens, five-dose
[2] = read-out: LC50 (the source's name)
[3] = read-out: LC50 (the source's name) (converted)

FC(F)(F)c1cc2c(Cl)ncnc2n1CCN1CCOCC1 [NUCC-0226680]
GI50 (CCRF-CEM): 16.6 µM | IC50 (CCRF-CEM): 35.5 µM | IC (TGI) (CCRF-CEM): 100 µM | CC50 (CCRF-CEM; [2]): ≥ 100 µM | GI50 (HS 578T): 16.6 µM | IC50 (HS 578T): 100 µM | IC (TGI) (HS 578T): 58.9 µM | CC50 (HS 578T; [2]): ≥ 100 µM | IC50 ([1]; MV4-11, 72 h, MV-4-11 cells, 3 days, CellTiter-Glo 2.0, read-out: IC50 (uM) [Cell Type: MV-4-11]): 0.679 µM | IC50 ([1]; MV4-11, bound stated in text, read-out: IC50 against MV-4-11 acute myeloid leukemia cells): < 2 µM | GI50 (PC-3): 11.2 µM | IC50 (PC-3): 19.1 µM | IC (TGI) (PC-3): 36.3 µM | CC50 (PC-3; [3]): ≥ 100 µM | GI50 (NCI/ADR-RES): 30.2 µM | IC50 (NCI/ADR-RES): 57.5 µM | IC (TGI) (NCI/ADR-RES): 100 µM | CC50 (NCI/ADR-RES; [3]): ≥ 100 µM | GI50 (NCI-H226): 100 µM | IC50 (NCI-H226): 100 µM | IC (TGI) (NCI-H226): 100 µM | CC50 (NCI-H226; [3]): ≥ 100 µM | GI50 (UACC-257): 10.5 µM | IC50 (UACC-257): 23.4 µM | IC (TGI) (UACC-257): 30.2 µM | CC50 (UACC-257; [3]): 87.1 µM | GI50 (SK-MEL-5): 12.9 µM | IC50 (SK-MEL-5): 22.9 µM | IC (TGI) (SK-MEL-5): 29.5 µM | CC50 (SK-MEL-5; [3]): 67.6 µM | GI50 (ACHN): 7.59 µM | IC50 (ACHN): 15.5 µM | IC (TGI) (ACHN): 100 µM | CC50 (ACHN; [3]): ≥ 100 µM | GI50 (A498): 100 µM | IC50 (A498): 100 µM | IC (TGI) (A498): 100 µM | CC50 (A498; [3]): ≥ 100 µM | GI50 (OVCAR-5): 100 µM | IC50 (OVCAR-5): 100 µM | IC (TGI) (OVCAR-5): 100 µM | CC50 (OVCAR-5; [3]): ≥ 100 µM | GI50 (NCI-H460): 23.4 µM | IC50 (NCI-H460): 28.2 µM | IC (TGI) (NCI-H460): 100 µM | CC50 (NCI-H460; [3]): ≥ 100 µM | GI50 (RPMI-8226): 31.6 µM | IC50 (RPMI-8226): 46.8 µM | IC (TGI) (RPMI-8226): 100 µM | CC50 (RPMI-8226; [2]): ≥ 100 µM | GI50 (BT-549): 13.5 µM | IC50 (BT-549): 28.2 µM | IC (TGI) (BT-549): 28.2 µM | CC50 (BT-549; [3]): 58.9 µM | GI50 (MDA-MB-468): 2.75 µM | IC50 (MDA-MB-468): 15.8 µM | IC (TGI) (MDA-MB-468): 10.5 µM | CC50 (MDA-MB-468; [3]): 42.7 µM | GI50 (NCI-H23): 17.8 µM | IC50 (NCI-H23): 37.2 µM | IC (TGI) (NCI-H23): 74.1 µM | CC50 (NCI-H23; [3]): ≥ 100 µM | GI50 (DU-145): 28.8 µM | IC50 (DU-145): 50.1 µM | IC (TGI) (DU-145): 100 µM | CC50 (DU-145; [3]): ≥ 100 µM | GI50 (U251): 14.8 µM | IC50 (U251): 24 µM | IC (TGI) (U251): 38.9 µM | CC50 (U251; [3]): ≥ 100 µM | GI50 (MDA-MB-435): 13.2 µM | IC50 (MDA-MB-435): 22.4 µM | IC (TGI) (MDA-MB-435): 29.5 µM | CC50 (MDA-MB-435; [3]): 64.6 µM | GI50 (OVCAR-3): 19.5 µM | IC50 (OVCAR-3): 37.2 µM | IC (TGI) (OVCAR-3): 43.7 µM | CC50 (OVCAR-3; [3]): 97.7 µM | GI50 (SW-620): 10.5 µM | IC50 (SW-620): 14.5 µM | IC (TGI) (SW-620): 56.2 µM | CC50 (SW-620; [3]): ≥ 100 µM | GI50 (UACC-62): 10.7 µM | IC50 (UACC-62): 20.9 µM | IC (TGI) (UACC-62): 32.4 µM | CC50 (UACC-62; [3]): 97.7 µM | GI50 (NCI-H522): 1.48 µM | IC50 (NCI-H522): 2.95 µM | IC (TGI) (NCI-H522): 3.31 µM | GI50 (HOP-62): 38.9 µM | IC50 (HOP-62): 100 µM | IC (TGI) (HOP-62): 100 µM | CC50 (HOP-62; [3]): ≥ 100 µM | GI50 (SK-MEL-28): 13.5 µM | IC50 (SK-MEL-28): 25.1 µM | IC (TGI) (SK-MEL-28): 33.1 µM | CC50 (SK-MEL-28; [3]): 79.4 µM

Reference: patent US20240109903A1, “SUBSTITUTED HETEROCYCLES FOR TREATING CANCER” (Northwestern University, priority 2022, published 2024)
